Test results reported in patent publication US11209437B2, “Fluorescent probe and preparation method and use thereof” (Fluorescence Diagnosis (shanghai) Biotech Company Ltd., priority 2016, dated 2021).

Assays:
[1] = Viscosity responsiveness: fluorescence emission spectra of probes in glycerol and methanol; format: physicochemical; settings: for Emission wavelength: excited at maximum excitation wavelength of each probe; for Fluorescence ratio in glycerol to methanol: probe 1×10^−5 M
Outline: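 Each probe, from a 1×10^−2 M DMSO stock, was diluted to a final 1×10^−5 M in glycerol and in methanol. Fluorescence emission spectra were then recorded under identical conditions at each probe's maximum excitation wavelength.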

[2] = Fluorescence of free probe prior to binding to a protein tag; format: physicochemical
SNAP protein tags = molecular target: T1, SNAP protein tags (Homo sapiens, UniProt P16455, A127T/A154D/C150Q/C62A/E30R/G131K/G132T/G153L/K125A/K32I/L33F/M134L/N157G/Q115S/Q116H/R128A/R135S/S151G/S152D/S159E); assay: Fluorescence activation of probe after incubation with corresponding protein tag (SNAP); format: biochemical; settings: probe 5 μM, protein tag 10 μM, 37° C., 1 hr
T1 sequence (P16455 1-182 E30R/K32I/L33F/C62A/Q115S/Q116H/K125A/A127T/R128A/G131K/G132T/M134L/R135S/C150Q/S151G/S152D/G153L/A154D/N157G/S159E): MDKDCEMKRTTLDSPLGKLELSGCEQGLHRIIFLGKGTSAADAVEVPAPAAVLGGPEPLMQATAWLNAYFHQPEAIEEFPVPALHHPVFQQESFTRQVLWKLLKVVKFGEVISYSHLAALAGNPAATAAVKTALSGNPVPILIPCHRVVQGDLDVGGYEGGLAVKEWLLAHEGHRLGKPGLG
Outline: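 Probe (5 μM final) mixed with CLIP or SNAP protein tag (10 μM final) and incubated 1 hr at 37° C. Fluorescence intensity change measured by fluorescence spectrophotometer, with quantum yield of tag-bound probe determined.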

[3] = tested on: HeLa cells with stable expression of protein tags; assay: Labeling of HeLa cells expressing protein tags vs HeLa-WT cells, confocal imaging; format: cell-based; settings: probe 5 μM, 37° C., 2 hrs
Procedure: HeLa cells with stable expression of protein tags and HeLa-WT cells (HeLa primitive cells, with no protein tag expressed) were implanted in a 14 mm glass-bottom 96-well cell culture plate and stabilized for 10 hrs. Probes 1, 15, 21, 30, 56, 60, 63, 88 were added to the media, respectively and diluted to 5 μMs. The cells were incubated in a carbon dioxide incubator at 37° C. for 2 hrs, and then a Leica TPS-8 confocal microscopy was used to image the fluorescent changes of the labeled cells. […] However, for HeLa cells with protein tags expressed shown by group A in FIG. 12, strong fluorescent signals could be detected, which are nearly 300 times stronger.

HeLa cells = assay: Labeling of organelle-localized protein tags in HeLa cells without washing; format: cell-based; settings: 0.2 μM probe, 2 hrs, no washing
From the text: To verify that probes 1, 21, 48, 60, 66 and 77 can be used to label target proteins located by different organelles, HeLa cells were taken as an example to detect the effect of probes on labeling different subcellular proteins. HeLa cells were implanted 5000 cells per well in a 96-well glass-bottom cell culture plate. 14 hrs later, the cells were transfected with the plasmids encoding different organelle localized protein tags using Lipo2000; the original medium was removed 24 hrs after transfection, washed with a phenol-free red DMEM medium twice, and incubated with a phenol-free red medium containing 0.2 μM probes for 2 hrs, and then the cell labeling effects were detected by imaging with a leica TCS-8 confocal microscopy.

fusion protein CX43-SNAP = assay: Tracing assembly of CX43-SNAP intercellular channels in HeLa cells; format: cell-based; settings: probe 21 2 μM 1 hour first, then probe 1 1 μM
From the text: To verify that the probe of the present invention can be used to monitor the assembly and degradation process of biological macromolecules in mammalian cells in real time, the process of tracing the assembly of intercellular protein CX43 to form intercellular channels in mammalian cells by the probe was detected by taking HeLa cells as an example. The C-terminal of CX43 gene was fused with SNAP gene, and HeLa cell line with stable expression of fusion protein CX43-SNAP was constructed and obtained by lentivirus infection technology. HeLa-CX43-SNAP cell lines were implanted in a 20 mm glass-bottom cell culture dish 10 hrs before the probe labeling. To conduct labeling, a phenol-free red DMEM medium was first used to dilute the probe 21 to 2 μM to replace the original cell culture medium. Cells were incubated in a carbon dioxide incubator at 37° C. for 1 hour. The cells were then washed twice using a fresh phenol-free red DMEM medium, with unbound probe 21 removed at 2-minute intervals. Then, DMEM phenol-free red culture medium containing 1 μM probe 1 was added to label cells. Leica SP8 confocal microscopy was used to monitor for a long time the fluorescence intensity and position changes of labeled cell samples at the corresponding fluorescence channels of probes 21 and 1, as shown in FIGS. 17A and 17B, respectively. […]

CLIP protein tags = assay: Fluorescence activation of probe after incubation with corresponding protein tag (CLIP); format: biochemical; settings: probe 5 μM, protein tag 10 μM, 37° C., 1 hr
Procedure: Probes were mixed with corresponding protein tags to obtain mixed samples, in which the final probe concentration was 5 μM, and the final protein tag concentration was 10 μM. The mixed samples were incubated 37° C. for 1 hr, fluorescence spectrophotometer was used to detect the change in fluorescence intensity, and the results are shown in Table 1.
From the quantum yield of probe bound to protein tag, after reacting with the protein tags, the probes of the Examples could be detected to have significant signal enhancement in corresponding excitation transmission channels, the fluorescence activation multiple reached several hundreds to a thousand or more, and the brightness was high, which illustrates that after the probes of the Examples are bound to the protein tags, fluorescence of the probes can be activated, and the probes have good fluorescent molecular switching properties. In contrast, though the fluorescence of the reference probes could also be activated, the quantum yield of activated fluorescence was very low, and the brightness was very poor. In particular, in view of comparison results between probe 98 and reference probe 99, probe 101 and reference probe 102, probe 103 and reference probe 104, probe 105 and reference probe 106, probe 107 and reference probe 108, probe 109 and reference probe 110, probe 111 and reference probe 112, probe 114 and reference probe 115, probe 117 and reference probe 118, probe 120 and reference probe 121 in Table 1, for the same fluorescent dye, when the ligand is connected to the electron donor part of the fluorescent dye, the fluorescence activation brightness of the probe is much higher than the reference probe in which ligand is connected to the electron acceptor part of the fluorescent dye.

SMILES | Emission wavelength [1] [nm] | Fluorescence ratio in glycerol to methanol [1] | Quantum yield of free probe [2] | Fluorescence activation multiple (SNAP protein tags) | Quantum yield of probe bound to protein tag (SNAP protein tags) | Fluorescence signal in HeLa-WT cells (no protein tag expressed) [3] | Fluorescent signal in HeLa cells with protein tags expressed, relative to HeLa-WT [3] [times] | Labeling of subcellular organelle structures (HeLa cells) | Fluorescence signal at intercellular channels (fusion protein CX43-SNAP) | Fluorescence activation multiple (CLIP protein tags) | Quantum yield of probe bound to protein tag (CLIP protein tags)
CN(CCOC(=O)NCc1ccc(COc2nc(N)nc3[nH]cnc23)cc1)c1ccc2c(c1)sc1cc(/C=C(/C#N)C(=O)OC(C)(C)C)sc12 [probe 63] | 620 | 531 | 0.0015 | 486 | 0.73 | no corresponding fluorescence signal was detected | ~300 |  |  |  | 
CN(CCOC(=O)NCc1ccc(COc2nc(N)nc3[nH]cnc23)cc1)c1ccc2cc(/C=C(\C#N)C(=O)OC(C)(C)C)sc2c1 [probe 30] | 570 | 1125 | <0.001 | 535 | 0.55 | no corresponding fluorescence signal was detected | ~300 |  |  |  | 
CN(CCOC(=O)NCc1ccc(COc2nc(N)nc3[nH]cnc23)cc1)c1cc2sc3cc(/C=C(\C#N)C(=O)OC(C)(C)C)sc3c2s1 [probe 60] | 620 | 1199 | 0.0011 | 751 | 0.81 | no corresponding fluorescence signal was detected | ~300 | clearly display a variety of subcellular organelle structures without washing |  |  | 
CN(CCOC(=O)NCc1ccc(COc2nc(N)nc3[nH]cnc23)cc1)c1ccc(-c2ccc(/C=C(\C#N)C(=O)OC(C)(C)C)s2)cc1 [probe 66] | 620 | 386 | <0.001 | 512 | 0.37 |  |  | clearly display a variety of subcellular organelle structures without washing |  |  | 
CN(CCOC(=O)NCc1ccc(COc2nc(N)nc3[nH]cnc23)cc1)c1ccc(/C=C(\C#N)C(=O)OC(C)(C)C)cc1 [probe 1] | 480 | 560 | <0.001 | 360 | 0.35 | no corresponding fluorescence signal was detected | ~300 | clearly display a variety of subcellular organelle structures without washing | appeared and gradually increased at the edge of intercellular channels |  | 
CN(CCOC(=O)NCc1ccc(COc2nc(N)nc3[nH]cnc23)cc1)c1ccc(-c2ccc(/C=C(\C#N)C(=O)OC(C)(C)C)s2)s1 [probe 77] | 655 | 279 | 0.0014 | 268 | 0.38 |  |  | clearly display a variety of subcellular organelle structures without washing |  |  | 
CN(CCOC(=O)NCc1ccc(COc2nccc(N)n2)cc1)c1ccc2nc(/C=C(\C#N)c3nc4ccccc4s3)oc2c1 [probe 48] | 625 | 180 | <0.001 |  |  |  |  | clearly display a variety of subcellular organelle structures without washing |  | 428 | 0.16
CN(CCOC(=O)NCc1ccc(COc2nc(N)nc3[nH]cnc23)cc1)c1ccc(C#C/C=C(\C#N)C(=O)OC(C)(C)C)cc1 [probe 56] | 566 | 436 | <0.001 | 989 | 0.39 | no corresponding fluorescence signal was detected | ~300 |  |  |  | 
CN(CCOC(=O)NCc1ccc(COc2nccc(N)n2)cc1)c1cc2c(s1)-c1sc(/C=C(/C#N)c3nc4ccccc4o3)cc1C2(C)C [probe 96] | 675 | 125 | <0.001 |  |  |  |  |  |  | 435 | 0.31
CN(CCOC(=O)NCc1ccc(COc2nccc(N)n2)cc1)c1cc2sc(/C=C(\C#N)c3nc4ccccc4o3)cc2s1 [probe 28] | 590 | 1132 | <0.001 |  |  |  |  |  |  | 551 | 0.31
CN(CCOC(=O)NCc1ccc(COc2nccc(N)n2)cc1)c1ccc(/C=C(\C#N)C(=O)OC(C)(C)C)cc1 [probe 7] | 480 | 1455 | <0.001 |  |  |  |  |  |  | 1502 | 0.23
CN(CCOC(=O)NCc1ccc(COc2nccc(N)n2)cc1)c1cc2c(s1)-c1sc(/C=C(/C#N)c3nc4ccccc4s3)cc1C2(C)C [probe 97] | 700 | 261 | <0.001 |  |  |  |  |  |  | 812 | 0.23
CN(CCOC(=O)NCc1ccc(COc2nccc(N)n2)cc1)c1ccc(C#C/C=C(\C#N)C(=O)OC(C)(C)C)cc1 [probe 57] | 566 | 762 | <0.001 |  |  |  |  |  |  | 1026 | 0.31
